Assay results reported in PMC5673977, “Transport Deficiency Is the Molecular Basis of Candida albicans Resistance to Antifungal Oligopeptides” (Frontiers in Microbiology, 2017).
Values after ≈ are worked out from the molar mass of the structure shown. Like-named read-outs stand apart in the source and are kept apart here. Where a SMILES comes first, the peptide text is derived from it. [ ]: non-standard residue; d: D form. The star is where a group is joined. Fumaryl(OMe) = COC(=O)/C=C/C(=O)*; Dap = NC[C@H](N)C(=O)O

Tests used:
Type in all cases: cell-based, Candida albicans
[1] = system: C. albicans opt1Δ; settings: turbidity 531 nm, at least 80% decrease
Experimental: (§1) Strains were grown at 30°C in YPD medium (1% yeast extract, 2% peptone, and 2% glucose) and stored on YPD plates containing 2% agar. Susceptibility testing was performed in YPD and other three media: (a) RPMI-1640 w/o sodium bicarbonate, with L-glutamine + 2% glucose + 3.45% MOPS, pH adjusted to 7.0; (b) YNB-AS—Yeast Nitrogen Base w/o amino acids (contains ammonium sulfate 5 g L^-1) + 2% glucose; (c) YNB-SG—Yeast Nitrogen Base w/o amino acids and ammonium sulfate + 2% glucose + 0.2 g L^-1 sodium glutamate. In their solid version, used for the mutant generation and isolation, YNB-AS and YNB-SG contained 2% agar.
(§2) The in vitro growth inhibitory activity of antifungals was quantified by determination of minimal inhibitory concentration (MIC) values by the serial twofold dilution method, using the 96-well microtiter plates in three media: buffered RPMI-1640, YNB-AS, and YNB-SG. Conditions of the RPMI-1640-based assay were the same as outlined in the CLSI recommendations ([Clinical Laboratory Standards Institute, 2008]), except for the end-point readout that was done by spectrophotometric determination of cell density at 531 nm. Turbidity in individual wells was measured with a microplate reader (Victor^3; Perkin Elmer). MIC was defined as the lowest drug concentration that gave at least an 80% decrease in turbidity, relative to that of the drug-free growth control.
(§3) The 96-well microtiter plates were also used for determination of in vitro growth inhibitory activity in YPD and YNB-based media. Individual wells were inoculated with 5 × 10^3 cfu mL^-1 of C. albicans cells from the overnight culture in YPD medium. The inoculated plates were incubated 37°C for 24 h and then turbidity was measured with a microplate reader at 531 nm, as described above for the RPMI-1640-based assay.

[2] = system: C. albicans opt1–opt5Δ ptr2Δ ptr22Δ; settings: turbidity 531 nm, at least 80% decrease
Experimental: as §1, §2, §3

[3] = system: C. albicans opt1–opt5Δ; settings: turbidity 531 nm, at least 80% decrease
Experimental: as §1, §2, §3

[4] = system: C. albicans opt4Δ; settings: turbidity 531 nm, at least 80% decrease
Experimental: as §1, §2, §3

[5] = system: C. albicans ptr2Δ ptr22Δ; settings: turbidity 531 nm, at least 80% decrease
Experimental: as §1, §2, §3

[6] = system: C. albicans SC5314; settings: for Increase of MICs in presence of Ala-Ala-Ala-Ala: YNB-SG + Ala-Ala-Ala-Ala 1 g L^-1; for Effect of supplementation with Ala-Ala or Ala-Ala-Ala on activity: YNB-based media + Ala-Ala or Ala-Ala-Ala, 1 g L^-1, 'similar effect' = complete elimination of activity as with Bacto Peptone; for MIC in YNB-AS, times higher than in YNB-SG: wild type SC5314
Experimental: as §1, §2, §3

[7] = system: C. albicans opt2Δ opt3Δ; settings: turbidity 531 nm, at least 80% decrease
Experimental: as §1, §2, §3

[8] = system: C. albicans opt5Δ; settings: turbidity 531 nm, at least 80% decrease
Experimental: as §1, §2, §3

[9] = system: C. albicans isolate LNF2; settings: YNB-SG medium
Excerpt: as §2, §3
(§4) Candida albicans cells, apparently resistant to FMDP-peptides, were isolated from the individual colonies formed on the surface of YNB-SG agar medium containing FMDP-peptide, 10 μg mL^-1 or within the growth inhibitory zones around the paper discs saturated with 10 μL of the FMDP-peptide solution, 1 mg mL^-1. In both versions, the agar surface was inoculated with 10^5 cells from the overnight culture in YPD medium, washed three times with sterile water, suspended in 0.2 mL of sterile water and the cell suspension was spread on the whole surface with a sterile glass rod. Plates were incubated for 48 h at 30°C and isolated colonies were picked with a platinum loop.
(§5) Growth inhibitory activity of FMDP-oligopeptides against C. albicans SC 5314 was also determined by the disc diffusion method. […] Cells grown in these colonies were collected, re-grown in YNB-AS and tested for sensitivity to FMDP-oligopeptides.

[10] = system: C. albicans isolate NF2; settings: YNB-SG medium
Excerpt: as §2, §3, §4, §5

[11] = system: C. albicans isolate LNF1; settings: YNB-SG medium
Excerpt: as §2, §3, §4, §5

[12] = system: C. albicans isolate NF1; settings: YNB-SG medium
Excerpt: as §2, §3, §4, §5

[13] = system: C. albicans isolate NF3; settings: YNB-SG medium
Excerpt: as §2, §3, §4, §5

[14] = system: C. albicans isolate LNF3; settings: YNB-SG medium
Excerpt: as §2, §3, §4, §5

[15] = system: C. albicans SC 5314; assay: Disc diffusion method; settings: YNB-AS agar, 10 μg of peptide on a disc (10 μL of 1 mg mL^-1), 48 h, 30°C
Experimental: as §4, §5
FIGURE 3 Disc diffusion activity determination of FMDP-oligopeptides. YNB-AS agar medium, 10 μg of each peptide applied on a disc. (A) F2; (B) F3; (C) F6; (D) F7; (E) F11.

[16] = RPMI-1640 medium, MOPS pH 7.0, CLSI conditions
[17] = SC 5314, RPMI-1640 medium, MOPS pH 7.0, CLSI conditions, turbidity 531 nm, at least 80% decrease
[18] = SC 5314, YNB + L-Gln (0.3 g L^-1) pH 5.0
[19] = SC 5314, YNB + L-Gln (0.3 g L^-1) pH 7.0
[20] = SC 5314, YNB + amino acid mixture (composition as in RPMI-1640)
[21] = SC 5314, YNB-AS medium, 5 × 10^3 cfu mL^-1, 37°C, 24 h, turbidity 531 nm, at least 80% decrease
[22] = SC 5314, YNB-SG medium, 5 × 10^3 cfu mL^-1, 37°C, 24 h, turbidity 531 nm, at least 80% decrease
[23] = SC 5314, growth medium YNB-SG (Table 6)

Row | Structure (SMILES) | MIC [1, 16] [µg/mL] | MIC ([1]; YNB-AS medium, 37°C, 24 h) [µg/mL] | MIC [2, 16] [µg/mL] | MIC ([2]; YNB-AS medium, 37°C, 24 h) [µg/mL] | MIC [3, 16] [µg/mL] | MIC ([3]; YNB-AS medium, 37°C, 24 h) [µg/mL] | MIC [4, 16] [µg/mL] | MIC ([4]; YNB-AS medium, 37°C, 24 h) [µg/mL] | MIC [5, 16] [µg/mL] | MIC ([5]; YNB-AS medium, 37°C, 24 h) [µg/mL] | MIC [6, 17] [µg/mL] | MIC [6, 18] [µg/mL] | MIC [6, 19] [µg/mL] | MIC [6, 20] [µg/mL] | MIC [6, 21] [µg/mL] | MIC [6, 23] [µg/mL] | Increase of MICs in presence of Ala-Ala-Ala-Ala [6] | Effect of supplementation with Ala-Ala or Ala-Ala-Ala on activity [6] | MIC in YNB-AS, times higher than in YNB-SG [6] | MIC [7, 16] [µg/mL] | other results
1 | COC(=O)/C=C/C(=O)NC[C@H](N)C(=O)N[C@@H](CCCNC(=N)N)C(=O)N[C@@H](CCCCN)C(=O)N[C@@H](CCCCN)C(=O)N[C@@H](Cc1c[nH]c2ccccc12)C(=O)N[C@@H](Cc1ccccc1)C(=O)N[C@@H](Cc1c[nH]c2ccccc12)C(=O)O [Peptide F7, FMDP-Arg-Lys-Lys-Trp-Phe-Trp] (H-[Dap](Fumaryl(OMe))RKKWFW-OH; N-terminus and C-terminus assumed) | >128 | 32 (≈ 27.9 µM) | >128 | >128 | >128 | >128 | >128 | 32 (≈ 27.9 µM) | >128 | 16 (≈ 13.9 µM) | >128 | 8.0 | 64 | >128 | 16 (≈ 13.9 µM) | 0.5 (≈ 0.435 µM) | 16- to 64 fold | no effect | 8–16 times | >128 | MIC ([1]; YNB-SG medium, 37°C, 24 h): 8 µg/mL (≈ 6.97 µM); MIC ([2]; YNB-SG medium, 37°C, 24 h): 64 µg/mL (≈ 55.7 µM); MIC ([3]; YNB-SG medium, 37°C, 24 h): 64 µg/mL (≈ 55.7 µM); MIC ([4]; YNB-SG medium, 37°C, 24 h): 16 µg/mL (≈ 13.9 µM); MIC ([5]; YNB-SG medium, 37°C, 24 h): 0.5 µg/mL (≈ 0.435 µM); MIC [6, 22]: 0.5 µg/mL (≈ 0.435 µM); MIC ([7]; YNB-SG medium, 37°C, 24 h): 32 µg/mL (≈ 27.9 µM); MIC [8, 16]: >128 µg/mL; MIC ([8]; YNB-AS medium, 37°C, 24 h): 32 µg/mL (≈ 27.9 µM); MIC ([8]; YNB-SG medium, 37°C, 24 h): 2 µg/mL (≈ 1.74 µM); MIC [9]: 16 µg/mL (≈ 13.9 µM); MIC [10]: 16 µg/mL (≈ 13.9 µM); MIC [11]: 16 µg/mL (≈ 13.9 µM); MIC [12]: 16 µg/mL (≈ 13.9 µM); MIC [13]: 16 µg/mL (≈ 13.9 µM); MIC [14]: 16 µg/mL (≈ 13.9 µM); Appearance of growth inhibitory zone [15]: clear
2 | COC(=O)/C=C/C(=O)NC[C@H](N)C(=O)N[C@@H](CCCCN)C(=O)N[C@@H](CCCCN)C(=O)N[C@H](C(=O)N[C@H](C(=O)N[C@@H](Cc1ccccc1)C(=O)N[C@@H](Cc1c[nH]c2ccccc12)C(=O)N[C@H](C(=O)N[C@@H](CCCCN)C(=O)N[C@@H](Cc1ccccc1)C(=O)N[C@@H](CCCCN)C(=O)O)C(C)C)C(C)C)C(C)C [Peptide F11, FMDP-Lys-Lys-Val-Val-Phe-Trp-Val-Lys-Phe-Lys] (H-[Dap](Fumaryl(OMe))KKVVFWVKFK-OH; N-terminus assumed) | >128 | 32 (≈ 21.2 µM) | >128 | >128 | >128 | >128 | >128 | 32 (≈ 21.2 µM) | >128 | 16 (≈ 10.6 µM) | >128 | 16 | >128 | >128 | 16 (≈ 10.6 µM) | 1.0 (≈ 0.664 µM) | 16- to 64 fold | no effect | 8–16 times | >128 | Effect of N-acetyl-D-glucosamine supplementation on growth inhibitory activity ([6]; YNB-SG medium + N-acetyl-D-glucosamine, 10 mM): complete elimination of growth inhibitory activity; MIC ([7]; YNB-AS medium, 37°C, 24 h): 128 µg/mL (≈ 84.9 µM); MIC [8, 16]: >128 µg/mL; MIC ([8]; YNB-AS medium, 37°C, 24 h): 16 µg/mL (≈ 10.6 µM); MIC [9]: 32 µg/mL (≈ 21.2 µM); MIC [10]: 32 µg/mL (≈ 21.2 µM); MIC [11]: 16 µg/mL (≈ 10.6 µM); MIC [12]: 16 µg/mL (≈ 10.6 µM); MIC [13]: 16 µg/mL (≈ 10.6 µM); MIC [14]: 16 µg/mL (≈ 10.6 µM); Appearance of growth inhibitory zone [15]: clear
3 | COC(=O)/C=C/C(=O)NC[C@H](NC(=O)[C@H](CCSC)NC(=O)[C@@H](NC(=O)[C@@H]1CCCN1C(=O)[C@H](CC(C)C)NC(=O)[C@@H](N)CCCCN)C(C)C)C(=O)O [Peptide F6, Lys-Leu-Pro-Val-Met-FMDP] (H-KLPVM[Dap](Fumaryl(OMe))-OH; N-terminus and C-terminus assumed) | >128 | 8 (≈ 10.2 µM) | >128 | >128 | >128 | >128 | >128 | 8 (≈ 10.2 µM) | >128 | 4 (≈ 5.1 µM) | >128 | 4.0 | 128 | >128 | 4 (≈ 5.1 µM) | 0.5 (≈ 0.637 µM) | 16- to 64 fold | no effect | 8–16 times | >128 | MIC ([1]; YNB-SG medium, 37°C, 24 h): 4 µg/mL (≈ 5.1 µM); MIC ([2]; YNB-SG medium, 37°C, 24 h): 64 µg/mL (≈ 81.5 µM); MIC ([3]; YNB-SG medium, 37°C, 24 h): 64 µg/mL (≈ 81.5 µM); MIC ([4]; YNB-SG medium, 37°C, 24 h): 8 µg/mL (≈ 10.2 µM); MIC ([5]; YNB-SG medium, 37°C, 24 h): 0.5 µg/mL (≈ 0.637 µM); MIC ([6]; SC5314, YNB-SG medium (Table 8)): 4 µg/mL (≈ 5.1 µM); MIC [6, 22]: 0.5 µg/mL (≈ 0.637 µM); MIC ([7]; YNB-AS medium, 37°C, 24 h): 32 µg/mL (≈ 40.8 µM); MIC ([7]; YNB-SG medium, 37°C, 24 h): 32 µg/mL (≈ 40.8 µM); MIC [8, 16]: >128 µg/mL; MIC ([8]; YNB-AS medium, 37°C, 24 h): 8 µg/mL (≈ 10.2 µM); MIC ([8]; YNB-SG medium, 37°C, 24 h): 4 µg/mL (≈ 5.1 µM); MIC [9]: 8 µg/mL (≈ 10.2 µM); MIC [10]: 4 µg/mL (≈ 5.1 µM); MIC [11]: 4 µg/mL (≈ 5.1 µM); MIC [12]: 4 µg/mL (≈ 5.1 µM); MIC [13]: 4 µg/mL (≈ 5.1 µM); MIC [14]: 4 µg/mL (≈ 5.1 µM); Appearance of growth inhibitory zone [15]: clear
